Assay results from ChEMBL document CHEMBL5518195, “N-(Heteroaryl)thiophene sulfonamides as angiotensin AT2 receptor ligands” (Eur J Med Chem, 2024).

Assays:
[1] = Stability in mouse liver microsomes assessed as half life at 1 uM in presence of NADPH by LC-MS/MS analysis; type: ADME, Microsome; settings: time 60 min
[2] = Stability in human liver microsomes assessed as half life at 1 uM in presence of NADPH by LC-MS/MS analysis; type: ADME, Microsome
[3] = target: T1, Type-2 angiotensin II receptor (Homo sapiens, UniProt P50052); assay: Displacement of [125I][Sar1 Ile8]-angiotensin II binding to human AT2R expressed in HEK293 cells; type: cell-based
T1 sequence (P50052 whole entry): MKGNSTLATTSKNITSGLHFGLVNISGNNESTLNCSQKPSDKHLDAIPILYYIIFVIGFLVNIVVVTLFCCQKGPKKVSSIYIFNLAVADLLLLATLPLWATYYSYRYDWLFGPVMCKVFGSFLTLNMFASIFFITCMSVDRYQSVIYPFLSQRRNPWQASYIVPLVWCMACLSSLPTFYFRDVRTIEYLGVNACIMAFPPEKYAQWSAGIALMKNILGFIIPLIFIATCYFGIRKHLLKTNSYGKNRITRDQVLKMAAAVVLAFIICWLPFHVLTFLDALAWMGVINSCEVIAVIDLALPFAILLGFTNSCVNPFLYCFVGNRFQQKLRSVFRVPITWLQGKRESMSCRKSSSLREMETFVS

[4] = Apparent permeability across apical to basal side in human Caco-2 cells at 5 uM measured for 15 to 60 mins by LC-MS/MS analysis; type: ADME, cell-based; settings: time 15-60 min
[5] = Efflux ratio of apparent permeability in human Caco-2 cells at 5 uM measured for 15 to 60 mins by LC-MS/MS analysis; type: ADME, cell-based; settings: time 15-60 min
[6] = target: T2, Type-1 angiotensin II receptor (Homo sapiens, UniProt P30556); assay: Inhibition of [125I][Sar1 Ile8]-angiotensin II binding to human AT1R expressed in HEK293 cells; type: cell-based
T2 sequence (P30556 whole entry): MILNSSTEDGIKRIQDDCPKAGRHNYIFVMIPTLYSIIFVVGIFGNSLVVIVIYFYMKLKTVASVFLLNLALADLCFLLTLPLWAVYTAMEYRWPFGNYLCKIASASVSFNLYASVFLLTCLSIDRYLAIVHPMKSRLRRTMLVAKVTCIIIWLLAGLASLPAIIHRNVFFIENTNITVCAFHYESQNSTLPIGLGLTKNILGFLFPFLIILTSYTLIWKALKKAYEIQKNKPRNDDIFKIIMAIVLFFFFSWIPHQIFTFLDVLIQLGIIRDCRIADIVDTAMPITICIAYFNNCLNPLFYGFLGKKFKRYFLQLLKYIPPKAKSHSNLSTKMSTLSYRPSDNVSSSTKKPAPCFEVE

[7] = Stability in human hepatocytes assessed as half life at 1 uM by LC-MS/MS analysis; type: ADME, cell-based, Hepatocyte
Thoracic aorta = assay: Induction of vasorelaxation in pre-contracted thoracic aorta of FVB/N mouse; type: functional, tissue-based

CC(C)Cc1cc(-c2cccc(C(=O)Cn3ccnc3C(C)(C)C)c2)c(S(=O)(=O)Nc2ncc(Cl)cn2)s1.O=C(O)C(F)(F)F
half-life at 1 µM [1]: 11 min
half-life at 1 µM [2]: 6.2 min
Ki [3]: 3.3 nM

CCCCOC(=O)NS(=O)(=O)c1sc(CC(C)C)cc1-c1cccc(Cn2ccnc2)c1
Papp A→B at 5 µM [4]: 3.4 ×10⁻⁶ cm/s

COc1ccc2c(c1OCc1ccccc1)C[C@@H](C(=O)O)N(C(=O)C(c1ccccc1)c1ccccc1)C2 [OLODANRIGAN]
Papp A→B at 5 µM [4]: 1.8 ×10⁻⁶ cm/s
efflux ratio at 5 µM [5]: 32

CC(C)Cc1cc(-c2cccc(Cn3ccnc3)c2)c(S(=O)(=O)Nc2nccc(C(F)(F)F)n2)s1.O=C(O)C(F)(F)F
half-life at 1 µM [1]: 10 min
half-life at 1 µM [2]: 6.7 min
Ki [3]: 300 nM

CC(C)Cc1cc(-c2cccc(C(=O)Cn3ccnc3C(C)(C)C)c2)c(S(=O)(=O)Nc2ncc(C(F)(F)F)cn2)s1
half-life at 1 µM [1]: 12 min
half-life at 1 µM [2]: 4.8 min
Ki [3]: 2 nM

Cc1nc(NS(=O)(=O)c2sc(CC(C)C)cc2-c2cccc(Cn3ccnc3)c2)ncc1Cl
half-life at 1 µM [1]: 23 min
half-life at 1 µM [2]: 6.6 min
Ki [3]: 300 nM

CC(C)Cc1cc(-c2cccc(Cn3ccnc3)c2)c(S(=O)(=O)Nc2nccs2)s1
half-life at 1 µM [1]: 210 min
half-life at 1 µM [2]: 61 min
Ki [3]: 650 nM

CC(C)Cc1cc(-c2cccc(Cn3ccnc3)c2)c(S(=O)(=O)Nc2ncc(Br)cn2)s1
half-life at 1 µM [1]: 160 min
half-life at 1 µM [2]: 14 min
Ki [3]: 42 nM

CC(C)Cc1cc(-c2cccc(C(=O)Cn3ccnc3C(C)(C)C)c2)c(S(=O)(=O)Nc2ncc(C#N)cn2)s1.O=C(O)C(F)(F)F
half-life at 1 µM [1]: 2.3 min
half-life at 1 µM [2]: 1.2 min
Ki [3]: 4.3 nM

CC(C)Cc1cc(-c2cccc(C(=O)Cn3ccnc3C(C)(C)C)c2)c(S(=O)(=O)Nc2nccs2)s1
half-life at 1 µM [1]: 6.4 min
half-life at 1 µM [2]: 6.7 min
Ki [3]: 96 nM

CC(C)Cc1cc(-c2cccc(C(=O)Cn3ccnc3C(C)(C)C)c2)c(S(=O)(=O)Nc2ncccn2)s1
Ki [6]: > 3 µM
Papp A→B at 5 µM [4]: 4.9 ×10⁻⁶ cm/s
half-life at 1 µM [7]: 77 min
half-life at 1 µM [1]: 17 min
half-life at 1 µM [2]: 20 min
Activity (Thoracic aorta): Dose-Dependent Effect
efflux ratio at 5 µM [5]: 77
Ki [3]: 4.9 nM

CC(C)Cc1cc(-c2cccc(C(=O)Cn3ccnc3C(C)(C)C)c2)c(S(=O)(=O)Nc2ncc(F)cn2)s1.O=C(O)C(F)(F)F
half-life at 1 µM [1]: 21 min
half-life at 1 µM [2]: 16 min
Ki [3]: 1.7 nM

CC(C)Cc1cc(-c2cccc(Cn3ccnc3)c2)c(S(=O)(=O)Nc2nc3ccccc3s2)s1.O=C(O)C(F)(F)F
half-life at 1 µM [1]: 480 min
half-life at 1 µM [2]: 56 min
Ki [3]: 800 nM

CC(C)Cc1cc(-c2cccc(C(=O)Cn3ccnc3C(C)(C)C)c2)c(S(=O)(=O)Nc2ncc(Br)cn2)s1
half-life at 1 µM [1]: 11 min
half-life at 1 µM [2]: 4.3 min
Ki [3]: 1.5 nM

CC(C)Cc1cc(-c2cccc(C(=O)Cn3ccnc3C(C)(C)C)c2)c(S(=O)(=O)Nc2ccc(C(F)(F)F)cn2)s1
half-life at 1 µM [1]: 3.6 min
half-life at 1 µM [2]: 2.3 min
Ki [3]: 29 nM

CC(C)Cc1cc(-c2cccc(Cn3ccnc3)c2)c(S(=O)(=O)Nc2nccc(C#N)n2)s1.O=C(O)C(F)(F)F
half-life at 1 µM [1]: 37 min
half-life at 1 µM [2]: 12 min
Ki [3]: 100 nM

CC(C)Cc1cc(-c2cccc(Cn3ccnc3)c2)c(S(=O)(=O)Nc2nccc(C(N)=O)n2)s1.O=C(O)C(F)(F)F
half-life at 1 µM [1]: 36 min
half-life at 1 µM [2]: 43 min
Ki [3]: 1100 nM

CC(C)Cc1cc(-c2cccc(C(=O)Cn3ccnc3C(C)(C)C)c2)c(S(=O)(=O)Nc2ccc(C#N)cc2)s1
half-life at 1 µM [1]: 2.3 min
half-life at 1 µM [2]: 1.2 min
Ki [3]: 600 nM
